Counter-ions that a name gives are not always drawn.
Assay: Dissolution measurement by USP Apparatus 2 (Paddle Apparatus), HPLC analysis
Format: physicochemical
Settings: for Dissolution, API released: 500 ml 0.1 N HCl pH 1.1, 37.0° C.; for Dissolution (% release), Max. / Dissolution (% release), Mean / Dissolution (% release), Min.: 500 ml 0.1 N HCl pH 1.1, N=6
Protocol: Dissolution studies were conducted to measure the rates of dissolution of active ingredients using a USP Apparatus 2 (Paddle Apparatus) with a dissolution fluid of 500 ml deaerated 0.1 N HCl (i.e., pH 1.1) at 37.0+/−0.5° C. Dissolution samples were analyzed by HPLC.
Dissolution medium of 0.1N HCl was prepared by mixing approximately 85 ml of concentrated (12N) Hydrochloric Acid with 10 L of water. Stock promethazine HCl standard solution was prepared by adding approximately 30 ml of dissolution medium to 25.0 mg of dried Promethazine Hydrochloride USP reference standard in a 50 ml volumetric flash, diluted to volume with dissolution media, and mixed well. […] The resulting solution is diluted to volume with dissolution medium and mixed well.
The dissolution apparatus used is USP Apparatus 2 (Paddle Apparatus) with a speed of 50 rpm at 37.0° C.±0.5° C. Dissolution medium (500 ml) was Helium sparged for at least 10 minutes. N=6 samples were tested. Sample time point of 5, 10, 15, 20, 30, 45, 60, and 90 minutes (final time point at 250 rpm). Filters: QLA 10 μm in-line full flow porous filter or equivalent; chromafil 1.0 μm on-line glass fiber membrane filter or equivalent.
The dissolution apparatus was assembled and the paddle was positioned so that the distance between its lower edge and the lower inner surface of the vessel is within 25 mm±2 mm throughout the test. This step was repeated for each of the six vessels. The speed (50 rpm) and the temperature (37.0° C.±0.5° C.) were set. 500 mL of 0.1N HCl solution were placed into each of the six vessels, previously degassed via helium purge, degassed using degasser or other suitable means. The Dissolution medium was equilibrated to set temperature and the temperature of the dissolution medium was checked with a thermometer or thermocouple before starting the dissolution. Each of the six (6) capsules were accurately weighed and the weight was recorded. The dissolution test was started. Each capsule was dropped with sinker into vessels noting the station assigned to each recorded capsule weight. The shaft was rotated at 50 rpm. Samples were withdrawn by dissolution auttosampler at 5, 10, 15, 20, 30, 45, 60, and 90 minutes into HPLC vials, or were withdraw manually. Filters (QLA 10 μm in-line full flow porous filter or equivalent; chromafil 1.0 μm on-line glass fiber membrane filter or equivalent) were utilized, discarding at least the first 5 mL of the filtrate, and clear filtrate was transfered into HPLC vials. After withdrawing samples at the 60 minute time point, the paddle rotation speed was increased to 250 rpm until the next time point of 90 minutes.
HPLC conditions: Flow rate: 1.0 ml/min; Injection Volume: 10 μL; Column Temperature: 40° C.±2° C.; Wavelengths: 240 nm; Run Time: 7 minutes; Mobile Phase A was 0.2% TFA in Water, which was prepared by mixing well 2.0 ml of trifluoroacetic acid with 1 L of water. Mobile Phase B: 0.2% TFA in Acetonitrile, which was prepared by mixing well 2.0 ml of trifluoroacetic acid to 1 L of acetonitrile; and Gradient used was as follows in Table 8.
If a Water® dissolution autosampler was utilized, then the Empower Dissolution Software was used to calculate the profile. Calculation are performed using a validated excel spreadsheet. When the sample was performed manually, the volume correction was considered for the calculation.

[1] = in a capsule, after 1 month store at 40° C., 5 min, 50 rpm
[2] = in a capsule, after 1 month store at 40° C., 10 min, 50 rpm
[3] = in a capsule, after 1 month store at 40° C., 15 min, 50 rpm
[4] = in a capsule, after 1 month store at 40° C., 20 min, 50 rpm
[5] = in a capsule, after 1 month store at 40° C., 30 min, 50 rpm
[6] = in a capsule, after 1 month store at 40° C., 45 min, 50 rpm
[7] = in a capsule, after 1 month store at 40° C., 60 min, 50 rpm
[8] = in a capsule, after 1 month store at 40° C., 90 min (250 rpm after 60 min)
[9] = in a capsule, large batch, 5 min, 50 rpm
[10] = in a capsule, large batch, 10 min, 50 rpm
[11] = in a capsule, large batch, 15 min, 50 rpm
[12] = in a capsule, large batch, 20 min, 50 rpm
[13] = in a capsule, large batch, 30 min, 50 rpm
[14] = in a capsule, large batch, 45 min, 50 rpm
[15] = in a capsule, large batch, 60 min, 50 rpm
[16] = in a capsule, large batch, 90 min (250 rpm after 60 min)

CC(CN1c2ccccc2Sc2ccccc21)N(C)C (centres unmarked) [Promethazine, Promethazine Hydrochloride]
Dissolution, API released (content of capsule without shells, 5 min, 50 rpm): 85%
Dissolution, API released (content of capsule without shells, 10 min, 50 rpm): 90%
Dissolution, API released (content of capsule without shells, 15 min, 50 rpm): 92%
Dissolution, API released (content of capsule without shells, 20 min, 50 rpm): 94%
Dissolution, API released (content of capsule without shells, 30 min, 50 rpm): 94%
Dissolution, API released (content of capsule without shells, 45 min, 50 rpm): 95%
Dissolution, API released (content of capsule without shells, 60 min, 50 rpm): 96%
Dissolution, API released (content of capsule without shells, 90 min (250 rpm after 60 min)): 100%
Dissolution (% release), Max. [1]: 56
Dissolution (% release), Mean [1]: 43
Dissolution (% release), Min. [1]: 35
Dissolution (% release), Max. [2]: 77
Dissolution (% release), Mean [2]: 64
Dissolution (% release), Min. [2]: 54
Dissolution (% release), Max. [3]: 83
Dissolution (% release), Mean [3]: 73
Dissolution (% release), Min. [3]: 63
Dissolution (% release), Max. [4]: 88
Dissolution (% release), Mean [4]: 79
Dissolution (% release), Min. [4]: 68
Dissolution (% release), Max. [5]: 92
Dissolution (% release), Mean [5]: 84
Dissolution (% release), Min. [5]: 74
Dissolution (% release), Max. [6]: 96
Dissolution (% release), Mean [6]: 89
Dissolution (% release), Min. [6]: 80
Dissolution (% release), Max. [7]: 98
Dissolution (% release), Mean [7]: 92
Dissolution (% release), Min. [7]: 84
Dissolution (% release), Max. [8]: 103
Dissolution (% release), Mean [8]: 102
Dissolution (% release), Min. [8]: 99
Dissolution (% release), Max. [9]: 63
Dissolution (% release), Mean [9]: 47
Dissolution (% release), Min. [9]: 32
Dissolution (% release), Max. [10]: 87
Dissolution (% release), Mean [10]: 69
Dissolution (% release), Min. [10]: 53
Dissolution (% release), Max. [11]: 92
Dissolution (% release), Mean [11]: 78
Dissolution (% release), Min. [11]: 63
Dissolution (% release), Max. [12]: 95
Dissolution (% release), Mean [12]: 82
Dissolution (% release), Min. [12]: 71
Dissolution (% release), Max. [13]: 97
Dissolution (% release), Mean [13]: 87
Dissolution (% release), Min. [13]: 79
Dissolution (% release), Max. [14]: 99
Dissolution (% release), Mean [14]: 92
Dissolution (% release), Min. [14]: 85
Dissolution (% release), Max. [15]: 101
Dissolution (% release), Mean [15]: 94
Dissolution (% release), Min. [15]: 88
Dissolution (% release), Max. [16]: 105
Dissolution (% release), Mean [16]: 102
Dissolution (% release), Min. [16]: 101
Dissolution, API released (in a capsule, small batch, 5 min, 50 rpm): 55%
Dissolution, API released (in a capsule, small batch, 10 min, 50 rpm): 78%
Dissolution, API released (in a capsule, small batch, 15 min, 50 rpm): 85%
Dissolution, API released (in a capsule, small batch, 20 min, 50 rpm): 88%
Dissolution, API released (in a capsule, small batch, 30 min, 50 rpm): 92%
Dissolution, API released (in a capsule, small batch, 45 min, 50 rpm): 95%
Dissolution, API released (in a capsule, small batch, 60 min, 50 rpm): 97%
Dissolution, API released (in a capsule, small batch, 90 min (250 rpm after 60 min)): 102%
Dissolution, API released (promethazine and sumatriptan pellets, 5 min, 50 rpm): 95%
Dissolution, API released (promethazine and sumatriptan pellets, 15 min, 50 rpm): 102%
Dissolution, API released (promethazine and sumatriptan pellets, 20 min, 50 rpm): 102%
Dissolution, API released (promethazine and sumatriptan pellets, 30 min, 50 rpm): 102%
Dissolution, API released (promethazine and sumatriptan pellets, 45 min, 50 rpm): 102%
Dissolution, API released (promethazine and sumatriptan pellets, 60 min, 50 rpm): 102%
Dissolution, API released (promethazine and sumatriptan pellets, 90 min (250 rpm after 60 min)): 102%

— US10772840B2 (Charleston Laboratories, Inc., priority 2016, dated 2020)
